Experimental data reported in PubChem BioAssay (NCI).
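1) Cells in 96-well plates. 2) Compound, 48 h, 5 concentrations. 3) Linear interpolation between surrounding doses. 4) Unreached endpoint = highest concentration. Abbreviation: GI50, concentration required for 50% inhibition of growth. TGI denotes the concentration required for complete inhibition of growth.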 Where a SMILES comes first, the peptide text is derived from it. The star is where a group is joined. Boc = CC(C)(C)OC(=O)*; OSu = O=C1CCC(=O)N1O*

Key:
Test in all cases: NCI-60 cell line screen, 48 h
[1] = test system: IGROV1 ovarian
[2] = test system: MDA-MB-231 breast
[3] = test system: RPMI-8226 leukemia
[4] = test system: MDA-N
[5] = test system: SK-MEL-2 melanoma
[6] = test system: UACC-62 melanoma
[7] = test system: KM12 colon
[8] = test system: HT29 colon
[9] = test system: HS 578T breast
[10] = test system: HCC-2998 colon

| Structure (SMILES) | TGI [1] | TGI [2] | TGI [3] | TGI [4] | TGI [5] | TGI [6] | TGI [7] | TGI [8] | TGI [9] | TGI [10] | GI50 [1] | GI50 [2] | GI50 [3] | GI50 [5] | GI50 [6] | GI50 [7] | GI50 [8] | GI50 [9] | GI50 [10] |
| --- | --- | --- | --- | --- | --- | --- | --- | --- | --- | --- | --- | --- | --- | --- | --- | --- | --- | --- | --- |
| N/C(=N\S(=O)(=O)c1ccc(S(=O)(=O)c2ccccc2)s1)Nc1ccc(Cl)cc1 | 31.7 µM | 28.8 µM | 88.7 µM | 39.1 µM | 31.6 µM | 24.4 µM | > 100 µM | 45.1 µM | 81.5 µM | – | – | – | – | – | – | – | – | – | – |
| CC(NC(=O)C(NC(=O)OC(C)(C)C)C(C)C)C(=O)NCC(=O)ON1C(=O)CCC1=O (stereo not drawn) (Boc-Val-Ala-Gly-OSu; configuration not given here) | > 100 µM | > 100 µM | > 100 µM | > 100 µM | > 100 µM | > 100 µM | > 100 µM | > 100 µM | – | > 100 µM | – | – | – | – | – | – | – | – | – |
| O=C(c1ccccc1)N1CCN(C(=S)N(C(=O)c2ccccc2)c2ccccc2)C1=S | 12.6 µM | > 42.5 µM | – | 17.1 µM | 23.5 µM | 11.4 µM | 20.5 µM | 31.2 µM | > 27.1 µM | 14.5 µM | – | – | – | – | – | – | – | – | – |
| Cc1c(Cl)c2ccccc2n1S(=O)(=O)c1ccccc1 | > 100 µM | – | 86 µM | – | > 100 µM | > 100 µM | > 100 µM | > 100 µM | – | > 100 µM | – | – | – | – | – | – | – | – | – |
| O=C(c1ccc(Cl)cc1)c1ccc(OCCCOc2ccc(C(=O)c3ccc(Cl)cc3)cc2)cc1 | > 100 µM | – | > 100 µM | – | > 100 µM | > 100 µM | > 100 µM | > 100 µM | – | > 100 µM | – | – | – | – | – | – | – | – | – |
| O=C(/C=C/c1ccc(O)cc1)c1ccc2c(c1)OCO2 | 28.9 µM | 37.4 µM | – | 86.1 µM | 62.4 µM | 47.6 µM | 33.7 µM | 33.7 µM | – | 40.5 µM | – | – | – | – | – | – | – | – | – |
| CCc1cc(Cc2cc(Cl)c(NC(=O)C(=O)C3NC(=O)NC3=O)c(CC)c2)cc(Cl)c1NC(=O)C(=O)C1NC(=O)NC1=O (stereo not given) | > 100 µM | – | > 100 µM | – | > 100 µM | > 100 µM | > 100 µM | 54 µM | – | > 100 µM | – | – | – | – | – | – | – | – | – |
| N#CC1=C(N)n2c(s/c(=C\c3ccc(Cl)cc3)c2=O)=C(c2nc3ccccc3[nH]2)C1c1ccc(Cl)cc1 (stereo not given) | 9.71 µM | – | 4.65 µM | – | 4.21 µM | 2.92 µM | 3.06 µM | – | – | 1.7 µM | – | – | – | – | – | – | – | – | – |
| CCC12CCCN(Cc3ccccc3)C1c1c([nH]c3ccccc13)C(C(=O)OC)C2 (stereo not given) | > 10 µM | > 10 µM | > 10 µM | > 10 µM | – | > 10 µM | > 10 µM | > 10 µM | > 10 µM | > 10 µM | – | – | – | – | – | – | – | – | – |
| Cc1c(Cl)nc(Nc2nc3ccccc3[nH]2)nc1Cl | > 100 µM | – | > 100 µM | > 100 µM | > 100 µM | > 100 µM | 41.6 µM | 89 µM | 82 µM | – | – | – | – | – | – | – | – | – | – |
| O=C(Nc1cccc(-n2ccc3c(NC(=O)c4ccccc4)nccc32)c1)Nc1cc(C(F)(F)F)cc(C(F)(F)F)c1 | > 50 µM | 4.73 µM | 2.85 µM | – | 4.68 µM | 13 µM | 4.7 µM | 4.31 µM | > 50 µM | > 50 µM | 2.46 µM | 1.42 µM | 1.13 µM | 1.32 µM | 2 µM | 1.53 µM | 1.37 µM | 1.44 µM | 2.1 µM |
| O=C(/N=C/c1c(O)c2ccccc2oc1=O)Nc1ccccc1 | > 100 µM | – | > 100 µM | – | 80.4 µM | > 100 µM | > 100 µM | > 100 µM | – | > 100 µM | – | – | – | – | – | – | – | – | – |
| C[n+]1c(-c2ccc(/C=N/NC(=N)N/N=C/c3ccc(-c4cn5cc(Cl)ccc5[n+]4C)cc3)cc2)cn2cc(Cl)ccc21 | > 100 µM | > 100 µM | > 100 µM | – | – | – | > 100 µM | > 100 µM | > 100 µM | > 100 µM | – | – | – | – | – | – | – | – | – |
| NC(CCCC(N)P(=O)(O)c1ccccc1)P(=O)(O)c1ccccc1 (stereo not given) | > 261 µM | – | > 261 µM | – | > 261 µM | > 261 µM | > 261 µM | > 261 µM | – | > 261 µM | – | – | – | – | – | – | – | – | – |
| CN1CCCC2(CCCc3ccccc32)C1 (stereo not given) | > 100 µM | – | > 100 µM | – | > 100 µM | > 100 µM | > 100 µM | > 100 µM | – | > 100 µM | – | – | – | – | – | – | – | – | – |
| [N-]=[N+]=C1N=CN=C1c1ncn[nH]1 | > 100 µM | > 100 µM | 38.8 µM | > 100 µM | > 100 µM | 56.3 µM | > 100 µM | > 100 µM | – | > 100 µM | – | – | – | – | – | – | – | – | – |
| COC(=O)C1Cc2c(OC)ccc(OC)c2CC(C(=O)OC)C1=O (stereo not given) | > 100 µM | > 100 µM | > 100 µM | > 100 µM | – | > 100 µM | > 100 µM | > 100 µM | > 100 µM | > 100 µM | – | – | – | – | – | – | – | – | – |
| N#CCc1n[nH]c(Cc2ccccc2)n1 | > 100 µM | > 100 µM | – | > 100 µM | > 100 µM | > 100 µM | > 100 µM | > 100 µM | > 100 µM | > 100 µM | – | – | – | – | – | – | – | – | – |
| CC1(C)N=C(C(N)=O)c2ncn(N)c2N1 | > 100 µM | > 100 µM | > 100 µM | > 100 µM | – | > 100 µM | > 100 µM | > 100 µM | > 100 µM | > 100 µM | – | – | – | – | – | – | – | – | – |
| Cc1cccc2c(=O)c([Se]c3coc4c(C)cccc4c3=O)coc12 | 26.5 µM | – | > 100 µM | – | 33.5 µM | 33.1 µM | 26.8 µM | 61.7 µM | – | 44.8 µM | – | – | – | – | – | – | – | – | – |
| COC(=O)C(Cc1c[nH]c2ccccc12)NC(=O)C(Cc1c[nH]c2ccccc12)NC(=O)C(Cc1c[nH]c2ccccc12)NC(=O)C(Cc1c[nH]c2ccccc12)NC(=O)C(Cc1c[nH]c2ccccc12)NC(=O)C(Cc1c[nH]c2ccccc12)NC(=O)OC(C)(C)C (stereo not given) (Boc-WWWWWW-OMe; configuration not given here) | > 100 µM | > 100 µM | > 100 µM | > 100 µM | > 100 µM | > 100 µM | – | > 100 µM | – | > 100 µM | – | – | – | – | – | – | – | – | – |
| O=C(c1ccco1)N1CCCN(C(=O)c2ccco2)C1=S | > 100 µM | > 100 µM | > 100 µM | > 100 µM | > 100 µM | > 100 µM | > 100 µM | > 100 µM | > 100 µM | – | – | – | – | – | – | – | – | – | – |
